Assay results: patent US9629887B1, “Control of acid reflux with botanicals” (Biotics Research Corporation, priority 2014, dated 2017)
Where a name gives a salt, the structure may show the parent alone.

Tested on: patients with acid reflux / GI tract symptoms
Test: Case histories of patients treated with HCl-Ease capsules
Assay type: in vivo, human
Conditions: previous treatment prescribed elsewhere, patient history
Source text: The invention is further illustrated by the following case histories, in which the inventive capsules as described above as the specific embodiment are referred to as HCl-Ease.

| SMILES | outcome of other treatment as stated by patient |
| --- | --- |
| C[N+](C)(C)CC(=O)O [Betaine HCL] | greatly increased their symptoms |
| COc1ccc2[nH]c([S+]([O-])Cc3ncc(C)c(OC)c3C)nc2c1 (centres unmarked) [Prilosec] | didn't help much |
